37 compounds from ChEMBL document CHEMBL5352475, “Design, synthesis, and biological evaluation of novel glutaminase 1 allosteric inhibitors with an alkane chain tail group” (Eur J Med Chem, 2023) can be followed below.

Converted amounts (≈) assume the structure as drawn.

Data set [1] concerns the target T1, Glutaminase kidney isoform, mitochondrial (Homo sapiens, UniProt O94925).
T1 sequence (O94925 whole entry): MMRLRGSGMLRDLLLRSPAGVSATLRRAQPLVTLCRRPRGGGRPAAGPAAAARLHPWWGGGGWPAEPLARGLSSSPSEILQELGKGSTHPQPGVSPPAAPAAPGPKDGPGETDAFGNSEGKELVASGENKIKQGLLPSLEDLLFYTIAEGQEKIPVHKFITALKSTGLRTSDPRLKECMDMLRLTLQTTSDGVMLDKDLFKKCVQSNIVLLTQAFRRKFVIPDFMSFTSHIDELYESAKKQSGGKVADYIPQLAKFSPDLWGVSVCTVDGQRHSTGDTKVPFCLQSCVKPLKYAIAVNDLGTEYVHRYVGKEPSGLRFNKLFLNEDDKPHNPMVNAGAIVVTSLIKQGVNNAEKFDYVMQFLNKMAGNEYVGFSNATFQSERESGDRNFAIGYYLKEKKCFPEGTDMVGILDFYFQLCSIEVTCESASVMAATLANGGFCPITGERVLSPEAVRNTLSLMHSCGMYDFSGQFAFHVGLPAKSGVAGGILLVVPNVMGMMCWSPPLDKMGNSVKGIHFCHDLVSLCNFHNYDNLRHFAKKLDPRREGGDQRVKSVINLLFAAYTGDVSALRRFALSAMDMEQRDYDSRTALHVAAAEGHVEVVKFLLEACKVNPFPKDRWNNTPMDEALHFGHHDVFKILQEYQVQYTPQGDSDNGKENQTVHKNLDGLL
The experiment in a line: Inhibition of GLS1 (unknown origin) preincubated for 10 mins followed by glutamine addition measured after 60 mins.

In data set [2] the test system is HCT-116. The experiment in a line: cells. As to conditions: Homo sapiens, HCT-116, 72 h.
Description: Antiproliferative activity against human HCT-116 cells incubated for 72 hrs by MTT assay
Data set [3] can be described thus: Metabolic stability in human liver microsomes assessed as half life by LC-MS/MS analysis. The data set is classed as ADME, Microsome. (In general: Liver microsomes are vesicles of endoplasmic reticulum, rich in cytochrome P450 enzymes.)
Data set [4] can be described thus: Metabolic stability in human liver microsomes assessed as clearance measured upto 120 mins by LC-MS/MS analysis. The data set is classed as ADME, Microsome. As to conditions: read-out: CLH.
Data set [5] is described as follows: Intrinsic aqueous solubility of the compound in PBS buffer at pH 7.4 measured after 72 hrs by LC-MS analysis. As to conditions: read-out: Intrinsic_solubility. The data set is classed as physicochemical.
In data set [6] the target is T2, Glutaminase kidney isoform, mitochondrial (Homo sapiens) (UniProt O94925).
T2 sequence (whole entry): T1 sequence (O94925 whole entry)
Description: Stabilization of GLS1 (unknown origin) assessed as change in melting temperature by protein thermal assay

Data set [7] concerns HCT-116. The experiment in a line: Antitumor activity against human HCT-116 cells xenografted in BALB/c nude mouse assessed as tumor growth inhibition at 100 mg/kg, ip for 20 days relative to control. The data set is classed as functional. To be noted: Mus musculus, HCT-116, 480 h, time 20 day, read-out: TGI. (A xenograft is tissue or cells of one species grown in another, often human tumour cells in immunodeficient mice.)

Regarding `CCCCNc1cccc(CC(=O)Nc2ccc(CCCCc3nnc(NC(=O)CCCC)s3)nn2)c1`, the IC50 in data set [1] was more than 20000 nM.

For the compound `C#CCCC(=O)Nc1nnc(CCCCc2ccc(NC(=O)Cc3cccc(O)c3)nn2)s1`, the values for the IC50 in data set [2] and in data set [1] were 3440 nM and 580 nM, respectively.

As for `CCCCC(=O)Nc1nnc(CCCCc2ccc(NC(=O)Cc3cccc(OCC)c3)nn2)s1`, the IC50 in data set [2] turned out to be 8540 nM; in data set [1], 220 nM.

On to `C=CCCC(=O)Nc1nnc(CCCCc2ccc(NC(=O)Cc3cccc(O)c3)nn2)s1`, for which the IC50 was 2630 nM in data set [2] and 530 nM in data set [1].

On to `C#CCCC(=O)Nc1nnc(CCCCc2ccc(NC(=O)Cc3cccc(OC(=O)CCC#C)c3)nn2)s1`, for which the 50% inhibitory concentration (IC50) in data set [2] came out at 5260 nM; in data set [1], 390 nM.

As for `C=CCCOc1cccc(CC(=O)Nc2ccc(N3CCC(Nc4nnc(NC(=O)CCC=C)s4)CC3)nn2)c1`, the half-life in data set [3] amounted to 68.6 min. Besides, the IC50 worked out at 430 nM in data set [2] and 19 nM in data set [1]. Moreover, the microsomal CLint in data set [4] was 50.2 µL/min/mg.

As for `CCCCOc1cccc(CC(=O)Nc2ccc(CCCCc3nnc(NC(=O)C4CC4)s3)nn2)c1`, the values for the half-maximal inhibitory concentration (IC50) in data set [2] and in data set [1] were 2640 nM and 160 nM, respectively. Moreover, the solubility at 72 h in data set [5] was found to be 0.71 µg/mL (≈ 1.4 µM).

Consider `C#CCOc1cccc(CC(=O)Nc2ccc(CCCCc3nnc(NC(=O)CCCC)s3)nn2)c1`, for which the values for the half-maximal inhibitory concentration (IC50) in data set [2] and in data set [1] were more than 10000 nM and 1050 nM, respectively.

In data set [1], `CCCCCCNc1cccc(CC(=O)Nc2ccc(CCCCc3nnc(NC(=O)CCCC)s3)nn2)c1` returned a half-maximal inhibitory concentration (IC50) of more than 20000 nM.

Consider `CCCCOc1cccc(CC(=O)Nc2ccc(OC3CC4CCC(C3)N4c3nnc(NC(=O)CCCC)s3)nn2)c1` (stereo not given), for which the figures for the IC50 in data set [2] and in data set [1] were 16900 nM and more than 20000 nM, respectively.

On to `CCCCCCCOc1cccc(CC(=O)Nc2ccc(CCCCc3nnc(NC(=O)CCCC)s3)nn2)c1`, for which the figures for the IC50 in data set [2] and in data set [1] were 1960 nM and 17 nM, respectively.

Take `C=CCCCOc1cccc(CC(=O)Nc2nnc(CCCCc3ccc(NC(=O)CC=C)nn3)s2)c1`: the half-inhibitory concentration (IC50) is 29400 nM in data set [2] and more than 5000 nM in data set [1].

For the compound `C#CCCC(=O)Nc1nnc(CCCCc2ccc(NC(=O)Cc3cccc(OCCC=C)c3)nn2)s1`, the IC50 in data set [2] is 2250 nM; in data set [1] it was 290 nM.

Consider `CCCCCCOc1cccc(CC(=O)Nc2ccc(CCCCc3nnc(NC(=O)CCCC)s3)nn2)c1`, for which the half-life in data set [3] turned out to be 26 min. In addition, the IC50 is 380 nM in data set [2] and 19 nM in data set [1]. For the same compound, the microsomal CLint in data set [4] came to 134 µL/min/mg.

Regarding `CCCCOc1cccc(CC(=O)Nc2ccc(CCCCc3nnc(NC(=O)C4CC(F)(F)C4)s3)nn2)c1`, the results for the IC50 in data set [2] and in data set [1] were 1860 nM and 68 nM, respectively. In data set [5], the solubility at 72 h turned out to be 6.23 µg/mL (≈ 11.2 µM).

In the case of `C=CCCOc1cccc(CC(=O)Nc2nnc(CCCCc3ccc(NC(=O)CC=C)nn3)s2)c1`, the IC50 in data set [2] was 24900 nM; in data set [1] it was more than 5000 nM.

Regarding `C=CCCCCOc1cccc(CC(=O)Nc2ccc(CCCCc3nnc(NC(=O)CCC=C)s3)nn2)c1`, in data set [3], the half-life was determined as 25.1 min. The half-inhibitory concentration (IC50) in data set [2] is 310 nM; in data set [1], 25.1 nM. Besides, the thermal shift (ΔTm) in data set [6] was 13.9 °C. In addition, the microsomal CLint in data set [4] amounted to 138 µL/min/mg. Further, in data set [5], the solubility at 72 h is 3.6 µg/mL (≈ 6.56 µM).

As for `CCCCC(=O)Nc1nnc(CCCCc2ccc(NC(=O)Cc3cccc(O)c3)nn2)s1`, the figures for the IC50 in data set [2] and in data set [1] were 6820 nM and 170 nM, respectively.

Regarding `O=C(Cc1ccccc1)Nc1nnc(CCSCCc2nnc(NC(=O)Cc3ccccc3)s2)s1`, the inhibition in vivo at 100 mg/kg in data set [7] was 31.3%.

As for `CCCCC(=O)Nc1nnc(CCCCc2ccc(NC(=O)Cc3cccc(OCCC)c3)nn2)s1`, the IC50 in data set [2] came out at 820 nM; in data set [1] it was 130 nM.

`C=CCCOc1cccc(CC(=O)Nc2ccc(CCCCc3nnc(NC(=O)CCC=C)s3)nn2)c1`: the IC50 came to 1370 nM in data set [2] and 87 nM in data set [1].

On to `CCCCCNc1cccc(CC(=O)Nc2ccc(CCCCc3nnc(NC(=O)CCCC)s3)nn2)c1`, for which, in data set [1], the IC50 was more than 20000 nM.

For the compound `CCCCOc1cccc(CC(=O)Nc2ccc(CCCCc3nnc(NC(=O)CCCC)s3)nn2)c1`, the half-life in data set [3] is 54.6 min. Also, the IC50 in data set [2] turned out to be 380 nM; in data set [1], 27 nM. The microsomal CLint in data set [4] came out at 63.5 µL/min/mg.

Take `C=CCCOc1cccc(CC(=O)Nc2ccc(CCCCc3nnc(NC(=O)CC=C)s3)nn2)c1`: the IC50 was determined as 1600 nM in data set [2] and 110 nM in data set [1].

Turning to `CCCCCCCCOc1cccc(CC(=O)Nc2ccc(CCCCc3nnc(NC(=O)CCCC)s3)nn2)c1`, the IC50 in data set [2] was 210 nM; in data set [1], 17 nM.

`C=CCCCCOc1cccc(CC(=O)Nc2nnc(CCCCc3ccc(NC(=O)CCC=C)nn3)s2)c1`: the IC50 in data set [2] is 660 nM; in data set [1], 34 nM.

In the case of `C=CCCCOc1cccc(CC(=O)Nc2ccc(CCCCc3nnc(NC(=O)CCC=C)s3)nn2)c1`, the IC50 in data set [2] was 920 nM; in data set [1] it was 79 nM.

Turning to `CCCCCCOc1cccc(CC(=O)Nc2ccc(CCCCc3nnc(NC(=O)C4CC(F)(F)C4)s3)nn2)c1`, the IC50 in data set [2] amounted to 1230 nM; in data set [1], 24 nM. In addition, in data set [5], the solubility at 72 h is 4.1 µg/mL (≈ 6.99 µM).

In the case of `CCCCC(=O)Nc1nnc(CCCCc2ccc(NC(=O)Cc3cccc(OC)c3)nn2)s1`, the IC50 in data set [2] was 2460 nM; in data set [1], 190 nM.

For the compound `CCCCCOc1cccc(CC(=O)Nc2ccc(CCCCc3nnc(NC(=O)C4CC4)s3)nn2)c1`, the IC50 came to 4030 nM in data set [2] and 36 nM in data set [1]. Also, the solubility at 72 h in data set [5] was 0.52 µg/mL (≈ 0.995 µM).

For `C=CCCCCOc1cccc(CC(=O)Nc2ccc(CCCCc3nnc(NC(=O)C4CC(F)(F)C4)s3)nn2)c1`, the half-life in data set [3] was found to be 87.8 min. Also, the 50% inhibitory concentration (IC50) in data set [2] amounted to 1680 nM; in data set [1] it was 32 nM. Moreover, the microsomal CLint in data set [4] came out at 39.5 µL/min/mg.

As to `CCCCC(=O)Nc1nnc(CCCCc2ccc(NC(=O)Cc3cccc(N)c3)nn2)s1`, half-maximal inhibition in data set [1] (IC50) required 520 nM.

In the case of `C=CCCC(=O)Nc1nnc(CCCCc2ccc(NC(=O)Cc3cccc(OC(=O)CCC=C)c3)nn2)s1`, the IC50 is 7900 nM in data set [2] and 140 nM in data set [1].

For `C=CCCOc1cccc(CC(=O)Nc2nnc(CCCCc3ccc(NC(=O)CCC=C)nn3)s2)c1`, the IC50 stood at 1520 nM in data set [2] and 240 nM in data set [1].

As for `C=CCCCCOc1cccc(CC(=O)Nc2ccc(CCCCc3nnc(N)s3)nn2)c1`, the IC50 turned out to be 1090 nM in data set [2] and 280 nM in data set [1].

As for `C=CCCCOc1cccc(CC(=O)Nc2nnc(CCCCc3ccc(NC(=O)CCC=C)nn3)s2)c1`, the figures for the IC50 in data set [2] and in data set [1] were 3700 nM and 36 nM, respectively.

In the case of `CCCCCOc1cccc(CC(=O)Nc2ccc(CCCCc3nnc(NC(=O)CCCC)s3)nn2)c1`, the values for the IC50 in data set [2] and in data set [1] were 2180 nM and 24 nM, respectively.

As usually defined, the IC50 is the point on the concentration scale where inhibition reaches its midpoint. Higher therefore signals weaker potency in that assay. Usually half-life stands for how long it takes for the measured level to halve. As usually defined, the ΔTm is the shift of the melting midpoint relative to a reference.
